In patent publication US12522851B2, “Method for purifying indole-3-lactic acid from Lactobacillus plantarum fermentation supernatant” (Zhejiang Gongshang University, priority 2021, dated 2026) one finds zone of inhibition data, which are given here for one compound.

By zone of inhibition is commonly meant the size of the clear area around the sample on an inoculated plate.

What all share (experiment): Oxford cup method antibacterial activity
Common to all, as to type: cell-based

Test [1] has as its system Salmonella typhimurium CMCC50015. Conditions: Salmonella enterica, 150 μL of 10 mg/ml in 1% acetonitrile aqueous solution, 1% indicator bacteria, read-out: Diameter of inhibition zone. On the procedure: (§1) The antibacterial activity of indole-3-lactic acid obtained by purification in step III in Embodiment 2 (i.e., concentrated H4 with a purity of 99.00%) was determined by an oxford cup method. 1% (volume concentration) of indicator bacteria was added to 150 μL of 10 mg/ml indole-3-lactic acid (dissolved in 1% acetonitrile aqueous solution). […] Listeria monocytogenes LM1, Bacillus subtilis BAS2, Salmonella paratyphi B CMCC50094, Salmonella paratyphi A CMCC50093, Salmonella enterica subsp. arizonae CMCC (B) 47001 and Salmonella typhimurium CMCC50015 were purchased from National Center for Medical Culture Collections (CMCC). Escherichia coli DH5a was purchased from Sangon Biotech (Shanghai) Co., Ltd. Staphylococcus aureus ATCC25923, Pseudomonas aeruginosa ATCC47085, Salmonella enterica subsp. enterica ATCC14028 and Salmonella choleraseuis ATCC13312 were purchased from American Type Culture Collection (ATCC). Micrococcus luteus CICC 10209 was purchased from China Center of Industrial Culture Collection (CICC). Staphylococcus citreus LC5 was purchased from China Center for Type Culture Collection (CCTCC). Staphylococcus simulans, Staphylococcus warneri, Staphylococcus carnosus pCA44 and Staphylococcus carnosus pot20 were presented by Professor Eefjan Breukink of Utrecht University in the Netherlands.

A further test has as its system Staphylococcus simulans. Conditions: 150 μL of 10 mg/ml in 1% acetonitrile aqueous solution, 1% indicator bacteria, read-out: Diameter of inhibition zone. On the procedure:
as §1

Test [2] has as its system Salmonella paratyphi A CMCC50093. Conditions: Salmonella enterica, 150 μL of 10 mg/ml in 1% acetonitrile aqueous solution, 1% indicator bacteria, read-out: Diameter of inhibition zone. The procedure:
as §1

Test [3] deals with Staphylococcus aureus ATCC25923. Conditions: 150 μL of 10 mg/ml in 1% acetonitrile aqueous solution, 1% indicator bacteria, read-out: Diameter of inhibition zone. The procedure:
as §1

The next test has as its system Staphylococcus warneri. Conditions: 150 μL of 10 mg/ml in 1% acetonitrile aqueous solution, 1% indicator bacteria, read-out: Diameter of inhibition zone. On the procedure:
as §1

Test [4] concerns Salmonella choleraseuis ATCC13312. Conditions: 150 μL of 10 mg/ml in 1% acetonitrile aqueous solution, 1% indicator bacteria, read-out: Diameter of inhibition zone. On the procedure:
as §1

Test [5] concerns Staphylococcus citreus LC5. Conditions: 150 μL of 10 mg/ml in 1% acetonitrile aqueous solution, 1% indicator bacteria, read-out: Diameter of inhibition zone. The procedure:
as §1

Test [6] has as its system Staphylococcus carnosus pot20. Conditions: 150 μL of 10 mg/ml in 1% acetonitrile aqueous solution, 1% indicator bacteria, read-out: Diameter of inhibition zone. On the procedure:
as §1

Test [7] deals with Staphylococcus carnosus pCA44. Conditions: PCA44, read-out: Diameter of inhibition zone. On the procedure:
as §1

Test [8] deals with Listeria monocytogenes LM1. Conditions: 150 μL of 10 mg/ml in 1% acetonitrile aqueous solution, 1% indicator bacteria, read-out: Diameter of inhibition zone. On the procedure: as §1
The test system of test [9] is Micrococcus luteus CICC 10209. Conditions: CICC10209, 150 μL of 10 mg/ml in 1% acetonitrile aqueous solution, 1% indicator bacteria, read-out: Diameter of inhibition zone. On the procedure: as §1
The subject of a further test is Bacillus subtilis BAS2. Conditions: 150 μL of 10 mg/ml in 1% acetonitrile aqueous solution, 1% indicator bacteria, read-out: Diameter of inhibition zone. On the procedure: as §1
Another test relates to Escherichia coli DH5α. Conditions: 150 μL of 10 mg/ml in 1% acetonitrile aqueous solution, 1% indicator bacteria, read-out: Diameter of inhibition zone. On the procedure: as §1
Test [10] deals with Salmonella enterica subsp. enterica ATCC14028. Conditions: 150 μL of 10 mg/ml in 1% acetonitrile aqueous solution, 1% indicator bacteria, read-out: Diameter of inhibition zone. On the procedure: as §1
For test [11], the system named is Salmonella paratyphi B CMCC50094. Conditions: Salmonella enterica, 150 μL of 10 mg/ml in 1% acetonitrile aqueous solution, 1% indicator bacteria, read-out: Diameter of inhibition zone. On the procedure:
as §1

In test [12] the test system is Salmonella enterica subsp. arizonae CMCC(B)47001. Conditions: 150 μL of 10 mg/ml in 1% acetonitrile aqueous solution, 1% indicator bacteria, read-out: Diameter of inhibition zone. On the procedure: as §1
Test [13] deals with Pseudomonas aeruginosa ATCC47085. Conditions: 150 μL of 10 mg/ml in 1% acetonitrile aqueous solution, 1% indicator bacteria, read-out: Diameter of inhibition zone. On the procedure: as §1

`O=C(O)C(O)Cc1c[nH]c2ccccc12` (centres unmarked) [indole-3-lactic acid, Indole-3-lactic acid]: the zone of inhibition at 10000 µg/mL in test [1] turned out to be 12.7 ± 0.18 mm; with Staphylococcus simulans it was 13.4 ± 0.25 mm; in test [2], 15.06 ± 0.08 mm; in test [3], 13.4 ± 0.25 mm; with Staphylococcus warneri, 18.76 ± 0.06 mm; in test [4], 13.6 ± 0.23 mm. Also, the zone of inhibition at 10000 µg/mL in [5] came to 13.06 ± 0.08 mm; in test [6] it was 15 ± 0.55 mm; in [7] it was 16.4 ± 0.27 mm; in [8] it was 10.95 ± 0.07 mm; in test [9], 19.1 ± 0.76 mm; in the test with Bacillus subtilis BAS2, 15.67 ± 0.01 mm. Further, the zone of inhibition at 10000 µg/mL in the test on Escherichia coli DH5α came out at 12.5 ± 0.17 mm; in test [10], 12.8 ± 0.17 mm; in [11], 13.2 ± 0.21 mm; in [12], 13.4 ± 0.45 mm; in [13] it was 10.66 ± 0.08 mm.
